Data: PubChem BioAssay (NCI)
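Briefly, cells in 96-well plates were exposed to five compound concentrations for 48 h, and endpoints were estimated by linear interpolation. At the GI50, growth is halved. Definition used: TGI = concentration required for complete inhibition of growth.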

tested on: KM12 colon; test: DTP human tumour cell line panel, 48 h

Row | SMILES | GI50 [µM] | TGI [µM]
1 | CC1CN1CC(O)C(O)CN1CC1C (stereo unspecified) | 7.37 | 23
2 | CCN(CC)c1ccc(C(=N)c2ccc(N(CC)CC)cc2)cc1 | 0.366 | 1.52

tested on: UACC-62 melanoma; test: DTP human tumour cell line panel, 48 h

Row | SMILES | TGI [µM] | GI50 [µM]
3 | Cc1cc(SCC(=O)c2ccccc2)nc2ccccc12 | > 100 | –
4 | Cc1cc(C)c(C(=O)CC(=O)c2cccnc2)c(C)c1 | 41.8 | 4.52
5 | CC1CN1CC(O)C(O)CN1CC1C (stereo unspecified) | > 53.2 | 2.99
6 | CCN(CC)c1ccc(C(=N)c2ccc(N(CC)CC)cc2)cc1 | 2.24 | 0.621

tested on: COLO 205 colon; test: DTP human tumour cell line panel, 48 h

Row | SMILES | TGI [µM] | GI50 [µM]
7 | Cc1cc(SCC(=O)c2ccccc2)nc2ccccc12 | > 100 | –
8 | Cc1cc(C)c(C(=O)CC(=O)c2cccnc2)c(C)c1 | > 100 | 8.01
9 | CC1CN1CC(O)C(O)CN1CC1C (stereo unspecified) | > 38.5 | 5.45
10 | CCN(CC)c1ccc(C(=N)c2ccc(N(CC)CC)cc2)cc1 | 1.32 | 0.361

tested on: HOP-62 NSCLC; test: DTP human tumour cell line panel, 48 h

Row | SMILES | TGI [µM] | GI50 [µM]
11 | Cc1cc(SCC(=O)c2ccccc2)nc2ccccc12 | > 100 | –
12 | Cc1cc(C)c(C(=O)CC(=O)c2cccnc2)c(C)c1 | > 100 | 6.32
13 | CC1CN1CC(O)C(O)CN1CC1C (stereo unspecified) | > 71.9 | 2.89
14 | CCN(CC)c1ccc(C(=N)c2ccc(N(CC)CC)cc2)cc1 | 2.6 | 0.831

tested on: SN12C renal; test: DTP human tumour cell line panel, 48 h

Row | SMILES | TGI [µM] | GI50 [µM]
15 | Cc1cc(SCC(=O)c2ccccc2)nc2ccccc12 | > 100 | –
16 | Cc1cc(C)c(C(=O)CC(=O)c2cccnc2)c(C)c1 | > 100 | 9.35
17 | CC1CN1CC(O)C(O)CN1CC1C (stereo unspecified) | > 67.8 | 0.692
18 | CCN(CC)c1ccc(C(=N)c2ccc(N(CC)CC)cc2)cc1 | 5.82 | 1.34

tested on: K-562 leukemia; test: DTP human tumour cell line panel, 48 h

Row | SMILES | TGI [µM] | GI50 [µM]
19 | Cc1cc(SCC(=O)c2ccccc2)nc2ccccc12 | > 100 | –
20 | Cc1cc(C)c(C(=O)CC(=O)c2cccnc2)c(C)c1 | > 100 | 3.71
21 | CC1CN1CC(O)C(O)CN1CC1C (stereo unspecified) | > 100 | 2.02
22 | CCN(CC)c1ccc(C(=N)c2ccc(N(CC)CC)cc2)cc1 | 1.67 | 0.255

tested on: HS 578T breast; test: DTP human tumour cell line panel, 48 h

Row | SMILES | TGI [µM] | GI50 [µM]
23 | Cc1cc(SCC(=O)c2ccccc2)nc2ccccc12 | 64.8 | –
24 | Cc1cc(C)c(C(=O)CC(=O)c2cccnc2)c(C)c1 | > 100 | 9.4
25 | CC1CN1CC(O)C(O)CN1CC1C (stereo unspecified) | 57.4 | 11.3
26 | CCN(CC)c1ccc(C(=N)c2ccc(N(CC)CC)cc2)cc1 | 2.39 | 0.59

tested on: TK-10 renal; test: DTP human tumour cell line panel, 48 h

Row | SMILES | TGI [µM] | GI50 [µM]
27 | Cc1cc(SCC(=O)c2ccccc2)nc2ccccc12 | > 100 | –
28 | Cc1cc(C)c(C(=O)CC(=O)c2cccnc2)c(C)c1 | > 100 | 9.77
29 | CC1CN1CC(O)C(O)CN1CC1C (stereo unspecified) | 65.7 | 7.7
30 | CCN(CC)c1ccc(C(=N)c2ccc(N(CC)CC)cc2)cc1 | 4.29 | 0.896

tested on: OVCAR-8 ovarian; test: DTP human tumour cell line panel, 48 h

Row | SMILES | TGI [µM] | GI50 [µM]
31 | Cc1cc(SCC(=O)c2ccccc2)nc2ccccc12 | > 100 | –
32 | Cc1cc(C)c(C(=O)CC(=O)c2cccnc2)c(C)c1 | > 100 | 4.58
33 | CC1CN1CC(O)C(O)CN1CC1C (stereo unspecified) | > 71.2 | 1.13
34 | CCN(CC)c1ccc(C(=N)c2ccc(N(CC)CC)cc2)cc1 | 3.75 | 0.905

tested on: UO-31 renal; test: DTP human tumour cell line panel, 48 h

Row | SMILES | TGI [µM] | GI50 [µM]
35 | Cc1cc(SCC(=O)c2ccccc2)nc2ccccc12 | > 100 | –
36 | Cc1cc(C)c(C(=O)CC(=O)c2cccnc2)c(C)c1 | > 100 | 4.63
37 | CC1CN1CC(O)C(O)CN1CC1C (stereo unspecified) | 10.9 | 0.932
38 | CCN(CC)c1ccc(C(=N)c2ccc(N(CC)CC)cc2)cc1 | 2.64 | 0.557

tested on: HT29 colon; test: DTP human tumour cell line panel, 48 h

Row | SMILES | TGI [µM] | GI50 [µM]
39 | Cc1cc(SCC(=O)c2ccccc2)nc2ccccc12 | > 100 | –
40 | Cc1cc(C)c(C(=O)CC(=O)c2cccnc2)c(C)c1 | > 100 | 4.85
41 | CC1CN1CC(O)C(O)CN1CC1C (stereo unspecified) | 19.7 | 2.87
42 | CCN(CC)c1ccc(C(=N)c2ccc(N(CC)CC)cc2)cc1 | 2.83 | 0.319

tested on: HCT-15 colon; test: DTP human tumour cell line panel, 48 h

Row | SMILES | TGI [µM] | GI50 [µM]
43 | Cc1cc(SCC(=O)c2ccccc2)nc2ccccc12 | > 100 | –
44 | Cc1cc(C)c(C(=O)CC(=O)c2cccnc2)c(C)c1 | > 100 | 3.36
45 | CC1CN1CC(O)C(O)CN1CC1C (stereo unspecified) | 46 | 4
46 | CCN(CC)c1ccc(C(=N)c2ccc(N(CC)CC)cc2)cc1 | 2.28 | 0.416

tested on: RPMI-8226 leukemia; test: DTP human tumour cell line panel, 48 h

Row | SMILES | TGI [µM] | GI50 [µM]
47 | Cc1cc(SCC(=O)c2ccccc2)nc2ccccc12 | > 100 | –
48 | Cc1cc(C)c(C(=O)CC(=O)c2cccnc2)c(C)c1 | > 100 | 5.31
49 | CC1CN1CC(O)C(O)CN1CC1C (stereo unspecified) | > 88.6 | 8.86
50 | CCN(CC)c1ccc(C(=N)c2ccc(N(CC)CC)cc2)cc1 | 2.42 | 0.358

tested on: MALME-3M melanoma; test: DTP human tumour cell line panel, 48 h

Row | SMILES | TGI [µM] | GI50 [µM]
51 | Cc1cc(SCC(=O)c2ccccc2)nc2ccccc12 | > 100 | –
52 | Cc1cc(C)c(C(=O)CC(=O)c2cccnc2)c(C)c1 | > 100 | 14.1
53 | CC1CN1CC(O)C(O)CN1CC1C (stereo unspecified) | 13.7 | 2.13
54 | CCN(CC)c1ccc(C(=N)c2ccc(N(CC)CC)cc2)cc1 | 2.48 | 0.714

tested on: SK-OV-3 ovarian; test: DTP human tumour cell line panel, 48 h

Row | SMILES | GI50 [µM] | TGI [µM]
55 | Cc1cc(C)c(C(=O)CC(=O)c2cccnc2)c(C)c1 | 9.04 | > 100
56 | CC1CN1CC(O)C(O)CN1CC1C (stereo unspecified) | 6.11 | > 100
57 | CCN(CC)c1ccc(C(=N)c2ccc(N(CC)CC)cc2)cc1 | 0.854 | 2.89
